According to patent US20040248898A1, “Remedies for arteriosclerosis” (priority 2001, published 2004):

These compounds were tested against T1, human group V sPLA2 (Homo sapiens, UniProt P39877) (assay: Chromogenic assay for inhibitory activity, group V sPLA2 inhibition tests). Conditions: not given.
T1 construct: made in house; host or cells: CHO cells, stably transfected (pSVL vector); culture supernatant used
T1 sequence (P39877 21-138): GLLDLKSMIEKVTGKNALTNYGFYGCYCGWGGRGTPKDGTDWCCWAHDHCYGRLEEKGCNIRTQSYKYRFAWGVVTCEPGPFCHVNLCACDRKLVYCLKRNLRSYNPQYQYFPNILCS
Format: biochemical
From the text: (§1) A. Preparation of Cells Expressing Human Group V or X sPLA2 and Preparation of the Culture Supernatant Thereof
(§2) cDNA sequence encoding human group V or X sPLA2 (Chen et al., J. Biol. Chem, 1994, 269, 2365-2368; and Cupillard et al., J. Biol. Chem, 1997, 272, 15745-15752) was inserted in forward direction downstream the promoter of an expression vector for mammal cells, pSVL SV40 Late Promoter Expression Vector (Amersham Pharmacia Biotech). The expression vector was transfected into CHO host cells using a Lipofect AMINE regent (Gibco BRL) according to the instructions of the manufacturer to provide CHO cells stably expressing human group V or X sPLA2. The cells were incubated in a-MEM medium containing 10% fetal calf serum for 3 days, and the culture supernatant was used to determine the activity of the enzymes.
(§3) B. Assay for Inhibitory Activity
(§4) The following chromogenic assay is used to identify and evaluate inhibitors of group V or X sPLA2. The assay has been adapted for high volume screening using 96 well microtiter plates. A general description of this assay is found in the article, “Analysis of Human Synovial Fluid Phospholipase A2 on Short Chain Phosphatidylcholine-Mixed Micelles: Development of a Spectrophotometric Assay Suitable for a Microtiterplate Reader”, by Laure. J. Reynolds, Lori L. Hughes and Edward A Dennis, Analytical Biochemistry, 204, pp 190-197, 1992.
(§5) A test compound (or a solvent blank) was added according to the predetermined arrangement of the plate, and diheptanoyl thio PC (1 mM) was reacted with human group V or X sPLA2 in the presence of Triton X-100 (0.3 mM), 5,5′-dithiobis-(2-nitrobenzoic acid) (125 μM) in a Tris buffer (25mM, pH7.3), CaCl2 (10 mM), KCl (100 mM), bovine serum albumin. Absorbance at 405 nm is read to estimate the inhibitory activity.
(§6) The reaction with human group V sPLA2 was performed in 40 μl/well at 40° C. for 45 minutes, and the reaction with human group X sPLA2 was performed in 15 μl/well at 40° C. for 30 minutes.

Row | Compound | IC50 [nM]
1 | CCc1c(C(=O)C(N)=O)c2c(OCC(=O)O)cccc2n1Cc1ccccc1-c1ccccc1 [Compound 19] | 6

Same assay, conditions: diheptanoyl thio PC 1 mM, 40° C., 45 minutes, absorbance at 405 nm; read-out: IC50 group V sPLA2 inhibition

Row | Compound | IC50 [nM]
2 | CCc1c(C(=O)C(N)=O)c2c(OCC(=O)O)nc(C)cn2c1Cc1cccc(-c2ccccc2)c1 [Compound 1] | 12
3 | CCc1c(C(=O)C(N)=O)c2c(OCC(=O)O)nc(C)cn2c1Cc1ccccc1Cc1ccccc1 [Compound 2] | 13
4 | CCc1c(C(=O)C(N)=O)c2c(OCC(=O)O)nc(-c3ccccc3)cn2c1Cc1ccccc1 [Compound 3] | 5
5 | NC(=O)C1=CCCc2c1c1c(OCC(=O)O)cccn1c2Cc1ccccc1 [Compound 7] | 2
6 | NC(=O)c1cccc2c1c1c(OCC(=O)O)cccc1n2CC1CCCCC1 [Compound 8] | 3
7 | NC(=O)c1cccc2c1c1c(OCC(=O)O)cccc1n2Cc1cccc(Oc2ccccc2)c1 [Compound 9] | 1
8 | NC(=O)c1cccc2c1c1c(OCC(=O)O)ccc(F)c1n2Cc1ccccc1 [Compound 10] | 7
9 | NC(=O)c1cccc2c1c1c(OCC(=O)O)cc(-c3ccco3)cc1n2Cc1ccccc1 [Compound 11] | 2
10 | CCc1c(C(=O)C(N)=O)c2c(OCC(=O)O)nc(C)cn2c1Cc1ccccc1CC1CCCCC1 [Compound 20] | 11
11 | CCc1ccc(-c2ccccc2Cc2c(CC)c(C(=O)C(N)=O)c3c(OCC(=O)O)nc(C)cn23)s1 [Compound 21] | 5
12 | CCc1c(C(=O)C(N)=O)c2c(OCC(=O)O)nc(C)cn2c1Cc1ccccc1-c1ccc(C)s1 [Compound 22] | 13
13 | NC(=O)c1cccc2c1c1c(OCC(=O)O)cccc1n2Cc1ccccc1 [Compound 23] | 8

Each compound was assayed against T2, human group X sPLA2 (Homo sapiens, UniProt O15496) (assay: Fatty acid release from isolated human lipoproteins induced by group X sPLA2). Conditions: agent 10 μmol/L, added with sPLA2; arachidonic acid from LDL (FIG. 2).
T2 sequence (O15496 43-165): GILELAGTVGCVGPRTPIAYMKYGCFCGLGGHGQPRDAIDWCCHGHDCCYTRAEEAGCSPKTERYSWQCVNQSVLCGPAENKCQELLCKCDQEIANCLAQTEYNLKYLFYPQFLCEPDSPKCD
Format: biochemical
Method: LDL and HDL were isolated from human plasma by ultracentrifugation (Havel, et al., J. Clin. Invest. 34, 1345-1353 (1955)). Human group IB, IIA and X sPLA2s (0.5 nmol/L to 500 nmol/L) were reacted with LDL and HDL (0.35-1 mg/ml) at 37° C. in a solution containing 12.5 mmol/L Tris-HCL buffer (pH 8.0), 125 mg/L bovine serum albumin, and 1 mmol/L calcium chloride. The fatty acids released from the lipoproteins were extracted according to the method of Dole (Dole, et al., J. Biol. Chem. 235, 2595-2599 (1960)), and were labeled with 9-anthryldiazomethane by the known method (Hanasaki, et al., J. Biol. Chem. 274, 34203-34211 (1999)). Then, the released fatty acids were determined by detecting fluorescence of the labeled products (fatty acids) eluted from high performance liquid chromatography (HPLC) on reverse-phase column (LichroCART 125-4 Superspher 100 RP-18 columnmol/Merck). In order to examine does-dependent release of fatty acids induced by each sPLA2, the lipoprotein was reacted with 0.5, 5, 50, and 500 nmol/L group X sPLA2, and 50 and 500 nmol/L group IB and IIA sPLA2 for 60 minutes. Further, in order to examine time-dependent fatty acid release induced by sPLA2, each 50 nmol/L sPLA2 was used, and the change in the release with time course was traced during the period time of 4 hours after the sPLA2 addition. In the experiment for determining the inhibitory activity of a sPLA2 inhibitor (indoxam; Yokota, et al., Biochim. Biophys. Acta 1438, 213-222 (1999)), a cyclooxygenase (COX) inhibitor (indomethacin) or a 5-lipoxygenase (5-LOX) inhibitor (AA-861; 2,3,5-trimethyl-6-(12-hydroxy-5,10-dodecadiynyl)-1,4-benzoquinone (Yoshimoto, et al., Biochem. Biophys. Acta. 713, 470-473 (1982)), those agents were added to the reaction giving a final concentration of 10 μmol/L, virtually simultaneously with the addition of sPLA2.

Row | Compound | Effect on fatty acid release induced by group X sPLA2
14 | CC1=C(C)C(=O)C(CCCCC#CCCCC#CCO)=C(C)C1=O [AA-861, 2,3,5-trimethyl-6-(12-hydroxy-5,10-dodecadiynyl)-1,4-benzoquinone] | affected neither
15 | COc1ccc2c(c1)c(CC(=O)O)c(C)n2C(=O)c1ccc(Cl)cc1 [indomethacin] | affected neither
16 | CCc1c(C(=O)C(N)=O)c2c(OCC(=O)O)cccn2c1Cc1ccccc1-c1ccccc1 [indoxam] | inhibited

The compounds below were run against T2, human group X sPLA2 (assay: Negative charge of isolated human lipoproteins (agarose gel electrophoresis) after group X sPLA2). Conditions: agent 10 μmol/L; LDL and HDL, 50 nmol/L sPLA2.
Format: biochemical
Method: LDL and HDL were isolated from human plasma by ultracentrifugation (Havel, et al., J. Clin. Invest. 34, 1345-1353 (1955)). Human group IB, IIA and X sPLA2s (50 nmol/L) and CuSO4 (20 μmol/L) were reacted with LDL and HDL (1 mg/ml) at 37° C. for 3, 6, and 24 hours in a solution containing 12.5 mmol/L Tris-HCL buffer (pH 8.0), 125 mg/L bovine serum albumin, and 1 mmol/L calcium chloride. Then, a 1 μg sample of LDL and a 2 μg sample of HDL were electrophoresed on agarose gel (Helena Laboratories, TITAN GEL Lipoprotein; 90V, 25 minutes). After the electrophoresis, the gel was dried at 50 to 60° C. for about 1 hour, stained with 6 ml of a stain solution (Helena Laboratories, Fat Red 7B agarose solution) for about 3 minutes, and then decolorized with 25 ml of a decolorizing solution (70% methanol). In the experiment for determining the activity of a sPLA2 inhibitor (indoxam), a COX inhibitor (indomethacin) or a 5-LOX inhibitor (AA-861), those agents were added to the reaction giving a final concentration of 10 μmol/L, virtually simultaneously with the addition of sPLA2.

Row | Compound | Effect on lipoprotein degeneration (increase in negative charge) induced by group X sPLA2
17 | CC1=C(C)C(=O)C(CCCCC#CCCCC#CCO)=C(C)C1=O [AA-861, 2,3,5-trimethyl-6-(12-hydroxy-5,10-dodecadiynyl)-1,4-benzoquinone] | affected neither
18 | COc1ccc2c(c1)c(CC(=O)O)c(C)n2C(=O)c1ccc(Cl)cc1 [indomethacin] | affected neither
19 | CCc1c(C(=O)C(N)=O)c2c(OCC(=O)O)cccn2c1Cc1ccccc1-c1ccccc1 [indoxam] | inhibited

These compounds were tested on mouse peritoneal macrophages (assay: Uptake of LDL into mouse peritoneal macrophages induced by group X sPLA2 (Oil Red O stain)). Conditions: agent 10 μmol/L; 0.2 mg/ml LDL, 50 nmol/L group X sPLA2, 48 hours.
Format: cell-based
Method: C57BL/6J mice (male, 8 weeks) were injected peritoneally with 2 ml of a 4% thioglycollate solution, and, 4 days later, the cells from the peritoneal fluids were harvested. The cells were plated on a chamber slide, and incubated for 2 hours in the presence of the serum-free medium (BIO […]: X-VIVO 15). Then, non-adherent cells were removed by the washing procedure to prepare peritoneal macrophages. The cells were added with 0.2 mg/ml LDL (Sigma) and 50 nmol/L group X PLA2, and incubated in the serum-free medium for 48 hours. Uptake of LDL into macrophages were confirmed by immobilizing the cells with 4% formaldehyde for 20 minutes, and then staining the lipids with an Oil Red O stain solution.

Row | Compound | Effect on group X sPLA2-induced uptake of LDL into the cells
20 | CC(Cc1ccc(O)c(O)c1)C(C)Cc1ccc(O)c(O)c1 (stereo not shown) [NDGA] | affected neither
21 | COc1ccc2c(c1)c(CC(=O)O)c(C)n2C(=O)c1ccc(Cl)cc1 [indomethacin] | affected neither
22 | CCc1c(C(=O)C(N)=O)c2c(OCC(=O)O)cccn2c1Cc1ccccc1-c1ccccc1 [indoxam] | inhibited

Each compound was assayed against T1, human group V sPLA2 (assay: Fatty acid (linoleic acid) release from isolated human lipoproteins induced by group V sPLA2). Conditions: agent 10 μmol/L; from LDL (FIG. 8).
Format: biochemical
Method: LDL and HDL were isolated from human plasma by ultracentrifugation (Havel, et al., J. Clin. Invest. 34, 1345-1353 (1955)). […] Biol. Chem. 235, 2595-2599 (1960)). The fatty acids were labeled with 9-anthryldiazomethane by the known method ([…], et al., J. Biol. Chem. 274, 34203-34211 (1999)), and then were determined by detecting fluorescence of the labeled products (fatty acids) eluted from high performance liquid chromatography (HPLC) on reverse-phase column (LichroCART 125-4 Superspher 100 RP-18 column, Merck).

Row | Compound | Effect on linoleic acid release induced by group V sPLA2
23 | COc1ccc2c(c1)c(CC(=O)O)c(C)n2C(=O)c1ccc(Cl)cc1 [indomethacin] | not affected
24 | CCc1c(C(=O)C(N)=O)c2c(OCC(=O)O)cccn2c1Cc1ccccc1-c1ccccc1 [indoxam] | inhibited

Each compound was assayed against T1, human group V sPLA2 (assay: Degeneration (negative charge, agarose gel electrophoresis) of isolated human lipoproteins by group V sPLA2). Conditions: agent 10 μmol/L; LDL and HDL, 50 nmol/L sPLA2.
Format: biochemical
Method: LDL and HDL were isolated from human plasma by ultracentrifugation (Havel, et al., J. Clin. Invest. 34, 1345-1353 (1955)). Human group IIA and V sPLA2s (50 nmol/L) were reacted with LDL and HDL (1 mg/ml) at 37° C. for 3, 6, and 24 hours in a solution containing 12.5 mmol/L Tris-HCL buffer (pH 8.0), 125 mg/L bovine serum albumin, and 1 mmol/L calcium chloride, and then 1 μg of the LDL and 2 μg of the HDL were spotted on an agarose gel (Helena Laboratories, TITAN GEL Lipoprotein), followed by being electrophoresed at 90V for 25 minutes. After the electrophoresis, the gels were dried at 50 to 60° C. for about one hour, stained with 6 ml of a stain solution (Helena Laboratories, Fat Red 7B agarose solution) for about three minutes, and then decolorized with 25 ml of a decolorizing solution (70% methanol).

Row | Compound | Effect on lipoprotein degeneration induced by group V sPLA2
25 | COc1ccc2c(c1)c(CC(=O)O)c(C)n2C(=O)c1ccc(Cl)cc1 [indomethacin] | not affected
26 | CCc1c(C(=O)C(N)=O)c2c(OCC(=O)O)cccn2c1Cc1ccccc1-c1ccccc1 [indoxam] | inhibited

What follows are compounds tested against T2, human group X sPLA2 (assay: Chromogenic assay for inhibitory activity, group X sPLA2 inhibition tests). Conditions: not given.
Format: biochemical
Design: made in house; host or cells: CHO cells, stably transfected (pSVL vector); culture supernatant used
From the text: as §1, §2, §3, §4, §5, §6

Row | Compound | IC50 [nM]
27 | CCc1c(C(=O)C(N)=O)c2c(OCC(=O)O)cccc2n1Cc1ccccc1-c1ccccc1 [Compound 19] | 26

Same assay, conditions: diheptanoyl thio PC 1 mM, 40° C., 30 minutes, absorbance at 405 nm; read-out: IC50 group X sPLA2 inhibition

Row | Compound | IC50 [nM]
28 | NC(=O)c1cccc2c1c1c(OCC(=O)O)cccc1n2CC1CCCCC1 [Compound 8] | 3
29 | NC(=O)c1cccc2c1c1c(OCC(=O)O)cccc1n2Cc1cccc(Oc2ccccc2)c1 [Compound 9] | 13
30 | NC(=O)c1cccc2c1c1c(OCC(=O)O)ccc(F)c1n2Cc1ccccc1 [Compound 10] | 12
31 | CCc1c(C(=O)C(N)=O)c2c(OCC(=O)O)nc(C)cn2c1Cc1ccc(-c2ccccc2)cc1 [Compound 12] | 16
32 | CCc1c(CC(N)=O)c2c(OCC(=O)O)nc(C)cn2c1Cc1ccc(F)cc1 [Compound 13] | 19
33 | CCc1c(C(=O)C(N)=O)c2c(OCC(=O)O)nc(C)cn2c1Cc1ccccc1C1CCCC1 [Compound 14] | 9
34 | CCCc1c(C(=O)C(N)=O)c2c(OCC(=O)O)nc(C)cn2c1Cc1ccc(F)cc1 [Compound 15] | 17
